The structures appear in SMILES notation.

The record followed here is patent US20180271873A1, “METHODS FOR TREATING VIRAL INFECTIONS” (priority 2015, published 2018).

The experiment relates to GFP-expressing Zaire Ebolavirus Mayinga-GFP. As to the kind of experiment: microbe, parasite or virus in culture. It counts as cell-based. Conditions: HeLa, read-out: Activity (Biological activity, EC50).

Regarding `Cc1cccc(/C=N/Nc2cc(N3CCOCC3)nc(OCc3ccccc3)n2)c1` [Compound 47, (E)-4-(2-(Benzyloxy)-6-(2-(3-methylbenzylidene)hydrazinyl)pyrimidin-4-yl)morpholine], the EC50 (usually the concentration at which the effect is half-maximal) was below 1000 nM.
On to `Cc1cccc(/C=N/Nc2cc(N3CCOCC3)nc(OCc3nc4ccccc4c(=O)[nH]3)n2)c1` [Compound 64, (E)-2-((4-(2-(3-Methylbenzylidene)hydrazinyl)-6-morpholinopyrimidin-2-yloxy)methyl)quinazolin-4(3H)-one], for which the EC50 was below 1000 nM.
In the case of `CCCN(CCC)c1cc(N/N=C/c2cccc(C)c2)nc(OCCc2ncccn2)n1` [Compound 24, (E)-6-(2-(3-Methylbenzylidene)hydrazinyl)-N,N-dipropyl-2-(2-(pyrimidin-2-yl)ethoxy)pyrimidin-4-amine] it was above 50000 nM; in that of `Cc1cccc(/C=N/Nc2cc(N3CCOCC3)nc(OCCc3ncccn3)n2)c1` [Compound 23, (E)-4-(6-(2-(3-Methylbenzylidene)hydrazinyl)-2-(2-(pyrimidin-2-yl)ethoxy)pyrimidin-4-yl)morpholine], below 1000 nM; in that of `Cc1cccc(/C=N/Nc2cc(N3CCS(=O)(=O)CC3)nc(OCCc3ccccn3)n2)c1` [Compound 16], above 50000 nM.
In the case of `FC(F)(F)c1cccc(/C=N/Nc2cc(N3CCOCC3)nc(OCCc3ccccn3)n2)c1` [Compound 33, (E)-4-(2-(2-(Pyridin-2-yl)ethoxy)-6-(2-(3-(trifluoromethyl)benzylidene)hydrazinyl)pyrimidin-4-yl)morpholine], the EC50 is below 1000 nM.
On to `Cc1cccc(/C=N/Nc2nc(OCCc3ccccn3)nc(N3CCOCC3)c2F)c1` [Compound 40, (E)-4-(5-Fluoro-6-(2-(3-methylbenzylidene)hydrazinyl)-2-(2-(pyridin-2-yl)ethoxy)pyrimidin-4-yl)morpholine], for which the EC50 was above 50000 nM.
With `Cc1cccc(/C=N/Nc2cc(N3CCN(C)CC3)nc(OCCc3ccccn3)n2)c1` [Compound 42, (E)-4-(2-(3-Methylbenzylidene)hydrazinyl)-6-(4-methylpiperazin-1-yl)-2-(2-(pyridin-2-yl)ethoxy)pyrimidine], the EC50 is above 50000 nM.
Regarding `Cc1cccc(/C=N/Nc2cc(N3CCCOCC3)nc(OCCc3ccccn3)n2)c1` [Compound 35, (E)-4-(6-(2-(3-Methylbenzylidene)hydrazinyl)-2-(2-(pyridin-2-yl)ethoxy)pyrimidin-4-yl)-1,4-oxazepane], the EC50 fell in the range of 1000 to 50000 nM.
The same measure for `Cc1cccc(/C=N/Nc2nc(OCCc3ccccn3)nc(N3CCOCC3)c2C#N)c1` [Compound 38, (E)-4-(2-(3-Methylbenzylidene)hydrazinyl)-6-morpholino-2-(2-(pyridin-2-yl)ethoxy)pyrimidine-5-carbonitrile]: above 50000 nM; for `C(=N\Nc1cc(N2CCOCC2)nc(OCCc2ccccn2)n1)/c1ccccc1` [Compound 46, (E)-4-(6-(2-Benzylidenehydrazinyl)-2-(2-(pyridin-2-yl)ethoxy)pyrimidin-4-yl)morpholine]: 1000 to 50000 nM.
In the case of `Cc1cccc(/C=N/Nc2cc(N3CCOCC3)nc(OCC(F)(F)c3ccccc3)n2)c1` [Compound 45, (E)-4-(2-(2,2-Difluoro-2-phenylethoxy)-6-(2-(3-methylbenzylidene)hydrazinyl)pyrimidin-4-yl)morpholine] it was 1000 to 50000 nM; in that of `Cc1ccccc1/C=N/Nc1cc(N2CCOCC2)nc(OCCc2ccccn2)n1` [Compound 10, (E)-4-(6-(2-(2-Methylbenzylidene)hydrazinyl)-2-(2-(pyridin-2-yl)ethoxy)pyrimidin-4-yl)morpholine], below 1000 nM.
Consider `Cc1cccc(/C=N/Nc2cc(N3CCOCC3)nc(Oc3ccccn3)n2)c1` [Compound 25, (E)-4-(6-(2-(3-Methylbenzylidene)hydrazinyl)-2-(pyridin-2-yloxy)pyrimidin-4-yl)morpholine], for which the EC50 was below 1000 nM.
The same measure for `Cc1cccc(/C=N/Nc2cc(N3CCOCC3)nc(OC(C)Cc3ccccn3)n2)c1` (stereo not shown) [Compound 28, (E)-4-(6-(2-(3-Methylbenzylidene)hydrazinyl)-2-(1-(pyridin-2-yl)propan-2-yloxy)pyrimidin-4-yl)morpholine]: below 1000 nM.
For `Cc1cccc(/C=N/Nc2cc(N3CCOCC3)nc(OCc3ncccn3)n2)c1` [Compound 5, (E)-4-(6-(2-(3-Methylbenzylidene)hydrazinyl)-2-(pyrimidin-2-ylmethoxy)pyrimidin-4-yl)morpholine], the EC50 is below 1000 nM.
The same measure for `Cc1cccc(/C=N/Nc2cc(N3CCOCC3)nc(Oc3ccc4ncc(Cl)cc4c3)n2)c1` [Compound 66, (E)-4-(2-(3-Chloroquinolin-6-yloxy)-6-(2-(3-methylbenzylidene)hydrazinyl)pyrimidin-4-yl)morpholine]: below 1000 nM.
In the case of `Cc1cccc(/C=N/Nc2cc(N3CCCCC3)nc(OCCc3ccccn3)n2)c1` [Compound 21, (E)-4-(2-(3-Methylbenzylidene)hydrazinyl)-6-(piperidin-1-yl)-2-(2-(pyridin-2-yl)ethoxy)pyrimidine] it was above 50000 nM; in that of `COc1cnc(COc2nc(N/N=C/c3cccc(C)c3)cc(N3CCOCC3)n2)nc1` [Compound 60, (E)-4-(2-((5-Methoxypyrimidin-2-yl)methoxy)-6-(2-(3-methylbenzylidene)hydrazinyl)pyrimidin-4-yl)morpholine], below 1000 nM.
The same measure for `C/C(=N\Nc1cc(N2CCOCC2)nc(OCCc2ccccn2)n1)c1cccc(C)c1` [Compound 34, (E)-4-(2-(2-(Pyridin-2-yl)ethoxy)-6-(2-(1-m-tolylethylidene)hydrazinyl)pyrimidin-4-yl)morpholine]: below 1000 nM.
As to `Cc1cccc(/C=N/Nc2cc(N3CCOCC3)nc(Oc3ccc4nc(Cl)ccc4c3)n2)c1` [Compound 55, (E)-4-(2-(2-Chloroquinolin-6-yloxy)-6-(2-(3-methylbenzylidene)hydrazinyl)pyrimidin-4-yl)morpholine], the EC50 is below 1000 nM.
The same measure for `Cc1cccc(/C=N/Nc2cc(N3CCOCC3)nc(Oc3ccccc3)n2)c1` [Compound 51, (E)-4-(6-(2-(3-Methylbenzylidene)hydrazinyl)-2-phenoxypyrimidin-4-yl)morpholine]: below 1000 nM; for `Cc1cccc(/C=N/Nc2cc(N3CCOCC3)nc(OCc3nc(C)cc(C)n3)n2)c1` [Compound 59, (E)-4-(2-((4,6-Dimethylpyrimidin-2-yl)methoxy)-6-(2-(3-methylbenzylidene)hydrazinyl)pyrimidin-4-yl)morpholine]: below 1000 nM; for `Cc1ccc(/C=N/Nc2cc(N3CCOCC3)nc(OCCc3ccccn3)n2)cc1` [Compound 56, (E)-4-(6-(2-(4-Methylbenzylidene)hydrazinyl)-2-(2-(pyridin-2-yl)ethoxy)pyrimidin-4-yl)morpholine]: below 1000 nM.
For `Cc1cccc(/C=N/Nc2cc(N3CCOCC3)nc(OCc3nccc(C(F)(F)F)n3)n2)c1` [Compound 54, (E)-4-(6-(2-(3-Methylbenzylidene)hydrazinyl)-2-((4-(trifluoromethyl)pyrimidin-2-yl)methoxy)pyrimidin-4-yl)morpholine], the EC50 was below 1000 nM.
For `Cc1cccc(/C=N/Nc2cc(C3CCOCC3)nc(OCCc3ccccn3)n2)c1` [Compound 41, (E)-4-(2-(3-Methylbenzylidene)hydrazinyl)-2-(2-(pyridin-2-yl)ethoxy)-6-(tetrahydro-2H-pyran-4-yl)pyrimidine], the EC50 was above 50000 nM.
The same measure for `Cc1cccc(/C=N/Nc2cc(N3CCOCC3)nc(OCCc3ccc(N)nc3)n2)c1` [Compound 43, (E)-5-(2-(4-(2-(3-Methylbenzylidene)hydrazinyl)-6-morpholinopyrimidin-2-yloxy)ethyl)pyridin-2-amine]: above 50000 nM.
On to `Cc1cccc(/C=N/Nc2cc(N3CCOCC3)nc(OCc3ncc(Cl)cn3)n2)c1` [Compound 52, (E)-4-(2-((5-Chloropyrimidin-2-yl)methoxy)-6-(2-(3-methylbenzylidene)hydrazinyl)pyrimidin-4-yl)morpholine], for which the EC50 was below 1000 nM.
In the case of `COc1c(N/N=C/c2cccc(C)c2)nc(OCCc2ccccn2)nc1N1CCOCC1` [Compound 31, (E)-4-(5-Methoxy-6-(2-(3-methylbenzylidene)hydrazinyl)-2-(2-(pyridin-2-yl)ethoxy)pyrimidin-4-yl)morpholine] it was 1000 to 50000 nM; in that of `Cc1cccc(/C=N/Nc2cc(N3CCOCC3)nc(-c3cccc(O)c3)n2)c1` [Compound 27, (E)-3-(4-(2-(3-Methylbenzylidene)hydrazinyl)-6-morpholinopyrimidin-2-yl)phenol], 1000 to 50000 nM; in that of `Cc1cccc(/C=N/Nc2cc(N3CCOCC3)nc(NCc3ccccn3)n2)c1` [Compound 18, (E)-4-(2-(3-Methylbenzylidene)hydrazinyl)-6-morpholino-N-(pyridin-2-ylmethyl)pyrimidin-2-amine], below 1000 nM.
Take `Cc1cccc(/C=N/Nc2cc(N3CC(C)OC(C)C3)nc(OCCc3ccccn3)n2)c1` (stereo not shown) [Compound 22, (E)-2,6-Dimethyl-4-(6-(2-(3-methylbenzylidene)hydrazinyl)-2-(2-(pyridin-2-yl)ethoxy)pyrimidin-4-yl)morpholine]: the EC50 fell in the range of 1000 to 50000 nM.
For `N#Cc1cccc(/C=N/Nc2cc(N3CCOCC3)nc(OCCc3ccccn3)n2)c1` [Compound 48, (E)-3-((2-(6-Morpholino-2-(2-(pyridin-2-yl)ethoxy)pyrimidin-4-yl)hydrazono)methyl)benzonitrile], the EC50 fell in the range of 1000 to 50000 nM.
In the case of `Cc1cccc(/C=N/Nc2cc(N3CCOCC3)nc(Oc3ccc4cccnc4c3)n2)c1` [Compound 15, (E)-4-(6-(2-(3-Methylbenzylidene)hydrazinyl)-2-(quinolin-7-yloxy)pyrimidin-4-yl)morpholine] it was below 1000 nM.
